From US7838509B2, “Methods and compositions to improve germ cell and embryo survival and function” (Bio-Origyn LLC, priority 1995, dated 2010)

Test system: human sperm
Assay: Human sperm cultured in PCAGH or monomeric sugars: sperm motility vs control HTF (Table 3)
Type: cell-based
Conditions: for sperm motility throughout a 24-hr culture period: compared to sperm cultured in arabinose and galactose or in control medium with no polysaccharides; for sperm motility compared to control HTF: human sperm
Experimental: Sperm Motility. Sperm motility measurements may be performed by subjective visual determination using a phase contrast microscope to group sperm into total percent motile (swimming), and total percent progressively motile (swimming forward). AIso the speed of those sperm which are progressively motile is determined, i.e., fast, medium, slow.
Alternatively, CASA can be used to objectively determine the motility characteristics of individual sperm cells in a sample (Davis, Infertility & Reproductive Medicine Clinics 3:341, 1992). A 7 μl sperm sample is placed onto a slide or chamber designed for CASA, and the computer tracks individual sperm cells and determines their motility as to speed over distance. Data is then expressed as percent motile, and specific measurements are given for parameters, such as mean path velocity and track speed. The measurements of velocity and linearity correlate with future fertility in several species studied.
Samples containing sperm are incubated at 37° C. (human) or 39° C. (animal) in 5% CO2 and humidified air. At various timed intervals, sperm survival rate, motility characteristics, functional membrane health and membrane lipid peroxidation levels are determined as described in Example 2.

Compound	sperm motility throughout a 24-hr culture period	sperm motility compared to control HTF (culture time 3 hr)	sperm motility compared to control HTF (culture time 15 hr)	sperm motility compared to control HTF (culture time 24 hr)
galactopyranosylarabinose	superior sperm motility	+	+	+
O=C[C@H](O)[C@@H](O)[C@@H](O)[C@H](O)C(=O)O [galacturonic acid]	superior sperm motility	+	+	+
O=C[C@H](O)[C@@H](O)[C@@H](O)[C@H](O)CO [galactose, reference compound]		= (Equivalent sperm motility compared to control HTF)	= (Equivalent sperm motility compared to control HTF)	= (Equivalent sperm motility compared to control HTF)
O=C[C@@H](O)[C@H](O)[C@H](O)CO [arabinose, reference compound]		= (Equivalent sperm motility compared to control HTF)	= (Equivalent sperm motility compared to control HTF)	= (Equivalent sperm motility compared to control HTF)
